{
  "source": "patent US20160291027A1",
  "about": "“METHODS FOR […] ABILITY OF A Z[…] COMPOUND TO TREAT CANCER” (Eisai R&D Management Co., Ltd., priority 2007, published 2016)",
  "key": {"[1]": {"test_system": "IL-8 secretion by LOX human melanoma cells", "test": "IL-8 secretion by LOX melanoma cells (ELISA)", "type": "cell-based", "details": "24 hours", "description": "Compound 106 (5.0 mg) was weighed and dissolved in 100% anhydrous DMSO (dimethyl sulfoxide, Sigma-Aldrich®, St. Louis, Mo.) to produce a 10 mmol/L stock solution of 3.89 mg/mL. Aliquots of the 10 mmol/L stock solution were stored at −80° C. Then, on each day of an experiment, an aliquot of the stock solution was thawed and diluted 1:10 by adding RPMI-1640 culture medium to obtain a 1 mmol/L solution. Four serial 1:10 dilutions were made from 1 mmol/L working solution by adding 10% DMSO in RPMI-1640 culture medium to obtain 4 additional working solutions. Each of these working stock solutions was further diluted with culture media to obtain diluted working solutions ranging from 1 nmol/L to 10,000 nmol/L. Five mL of each of these diluted working solutions was added to each dish.\nLOX human melanoma cells were originally obtained from the DCTD Tumor Repository (Frederick, Md.). The cells were grown in monolayer cultures in RPMI-1640 growth media containing 10% fetal bovine serum (FBS) at 37° C. in a 5% CO2 humidified incubator.\nLOX human melanoma cells were plated at 1×10^6 cells into 100 mm dishes. After 48 hours, cells were washed three times with phosphate buffered saline (PBS) and were cultured with RPMI-1640 medium containing 0.1% FBS for another 24 hours. After removing the cell culture medium, fresh RPMI-1640 medium containing Compound 106 (1, 10, 100, 1000, or 10,000 nmol/L) was added to each culture dish and incubated for 24 hours (see Table 5). The control received 0.1% DMSO in RPMI-1640 culture medium alone to measure spontaneous secretion of IL-6 and IL-8. Three separate experiments were performed in duplicate to calculate the mean±SEM.\nAfter a 24 hour incubation with Compound 106 or 0.1% DMSO, 5 mL of cell culture supernatant was collected. Any particulate material was removed by centrifugation. All samples were stored in the −80° C. freezer until analysis. Human IL-6 or IL-8 was determined using an ELISA kit (Human IL-8 ELISA Set, Catalog No. 555244, BD Biosciences, San Diego, Calif. and Human IL-6 ELISA Set, Catalog No. 555220, BD Biosciences, San Diego, Calif.) with the assay procedure provided by the kits. Absorbance was read on a VERSAMAX™ (Molecular Devices, now part of MDS Analytical Technologies, Sunnyvale Calif.).\nAfter removing the cell culture supernatant, 1.0 mL of trypsin was added to the cells for 3 minutes, and then 4 mL of media containing 10% FBS was added for cell counting. Cells were counted using a hematocytometer (Bright Line Counting Chamber, Hausser Scientific, Horsham, Pa.) with a depth of 0.1 mm. The total number of cells was calculated as follows:\nTotal number of cells in 5 mL=C×10^4/mL×5 mL(C: actual cell count in 1 mm^2)\nThe level of IL-6 or IL-8 was determined as ng/1×10^6 cells. Inhibition of IL-6 or IL-8 secretion by Compound 106 was expressed as percent of control using the formula below:\nPercent of control=(value of treatment−mean value of blank)/(value of control−mean value of blank)×100\nThe software, Graphpad Prism® (ver. 4, San Diego, Calif.) was used for calculation of mean IC50 values."}, "[2]": {"test_system": "wildtype xenograft models (pancreatic cell lines)", "test": "Other xenograft models, wildtype", "type": "in vivo, mice", "details": "40 mg/kg i.v. QD×5 for 2 weeks", "description": "Additionally, one, five, and seven out of eight animals in the groups treated with Compound 106 at doses of 10, 20, or 40 mg/kg, respectively, were tumor-free at the end of the study on day 59. […] Compound 106 was also tested in other xenograft models, in which BRAF-mutated cells, including breast, colon, and melanoma cell lines, or wildtype cells, including pancreatic cell lines, were transplanted subcutaneously into female nude mice. Compound 106 or a vehicle control was administered intravenously."}, "SK-MEL-28": {"test_system": "SK-MEL-28", "test": "MTS cell growth inhibition assay", "type": "cell-based", "details": "Homo sapiens, 96 h, SK-MEL-28 melanoma, BRAF mutated, four days", "description": "(§1) Cell growth inhibition following treatment with a zearalenone analog compound, Compound 106, was assessed in a panel of cancerous cell lines from different tissue types, which carry mutations in BRAF and/or RAS. A panel of 21 cell lines was tested with varying concentrations of Compound 106. All assays were performed in a 96 well format. Cell viability was assessed after four days following treatment. Cell viability was assessed with a MTS Assay (CellTiter96®AqueousOne Solution Cell Proliferation Assay, Promega) in a panel of cell lines carrying no mutations or various BRAF (V600E) and/or RAS mutations to determine the effect of BRAF and RAS genotype on drug sensitivity."}, "SK-MEL-3": {"test_system": "SK-MEL-3", "test": "MTS cell growth inhibition assay", "type": "cell-based", "details": "Homo sapiens, SK-MEL3, 96 h, SK-MEL-3 melanoma, BRAF mutated, four days", "description": "as §1"}, "MDA-MB-435": {"test_system": "MDA-MB-435", "test": "MTS cell growth inhibition assay", "type": "cell-based", "details": "Homo sapiens, 96 h, MDA-MB-435 breast, BRAF mutated, four days", "description": "as §1"}, "Colo-205": {"test_system": "Colo-205", "test": "MTS cell growth inhibition assay", "type": "cell-based", "details": "Homo sapiens, 96 h, Colo-205 colorectal, BRAF mutated, four days", "description": "as §1"}, "DU4475": {"test_system": "DU4475", "test": "MTS cell growth inhibition assay", "type": "cell-based", "details": "Homo sapiens, DU-4475, 96 h, DU4475 breast, BRAF mutated, four days", "description": "as §1"}},
  "data": [
    {"smiles": "CCNc1cc(O)c2c(c1)/C=C/C[C@H](O)[C@H](O)C(=O)/C=C\\[C@@H](C)[C@H](C)OC2=O", "note": "[Compound 106]", "values": [
      {"measurement": "IL-8 (ng/million cells) Mean", "setting": "[1]; 1 nmol/L", "result": 128.8, "unit": "ng/million cells"},
      {"measurement": "IL-8 (pg/million cells) Experiment 1", "setting": "[1]; 1 nmol/L", "result": 112318, "unit": "pg/million cells"},
      {"measurement": "IL-8 (pg/million cells) Experiment 2", "setting": "[1]; 1 nmol/L", "result": 213228, "unit": "pg/million cells"},
      {"measurement": "IL-8 (pg/million cells) Experiment 3", "setting": "[1]; 1 nmol/L", "result": 60753, "unit": "pg/million cells"},
      {"measurement": "Protein level of IL-8, Percent (%) of control Experiment 1", "setting": "[1]; 1 nmol/L", "result": 106.9, "unit": "%"},
      {"measurement": "Protein level of IL-8, Percent (%) of control Experiment 2", "setting": "[1]; 1 nmol/L", "result": 123.9, "unit": "%"},
      {"measurement": "Protein level of IL-8, Percent (%) of control Experiment 3", "setting": "[1]; 1 nmol/L", "result": 163.4, "unit": "%"},
      {"measurement": "IL-8 (ng/million cells) Mean", "setting": "[1]; 10 nmol/L", "result": 60.2, "unit": "ng/million cells"},
      {"measurement": "IL-8 (pg/million cells) Experiment 1", "setting": "[1]; 10 nmol/L", "result": 47049, "unit": "pg/million cells"},
      {"measurement": "IL-8 (pg/million cells) Experiment 2", "setting": "[1]; 10 nmol/L", "result": 90632, "unit": "pg/million cells"},
      {"measurement": "IL-8 (pg/million cells) Experiment 3", "setting": "[1]; 10 nmol/L", "result": 42942, "unit": "pg/million cells"},
      {"measurement": "Protein level of IL-8, Percent (%) of control Experiment 1", "setting": "[1]; 10 nmol/L", "result": 44.8, "unit": "%"},
      {"measurement": "Protein level of IL-8, Percent (%) of control Experiment 2", "setting": "[1]; 10 nmol/L", "result": 52.7, "unit": "%"},
      {"measurement": "Protein level of IL-8, Percent (%) of control Experiment 3", "setting": "[1]; 10 nmol/L", "result": 115.5, "unit": "%"},
      {"measurement": "IL-8 (ng/million cells) Mean", "setting": "[1]; 100 nmol/L", "result": 3.1, "unit": "ng/million cells"},
      {"measurement": "IL-8 (pg/million cells) Experiment 1", "setting": "[1]; 100 nmol/L", "result": 3079, "unit": "pg/million cells"},
      {"measurement": "IL-8 (pg/million cells) Experiment 2", "setting": "[1]; 100 nmol/L", "result": 3249, "unit": "pg/million cells"},
      {"measurement": "IL-8 (pg/million cells) Experiment 3", "setting": "[1]; 100 nmol/L", "result": 3101, "unit": "pg/million cells"},
      {"measurement": "Protein level of IL-8, Percent (%) of control Experiment 1", "setting": "[1]; 100 nmol/L", "result": 2.9, "unit": "%"},
      {"measurement": "Protein level of IL-8, Percent (%) of control Experiment 2", "setting": "[1]; 100 nmol/L", "result": 1.9, "unit": "%"},
      {"measurement": "Protein level of IL-8, Percent (%) of control Experiment 3", "setting": "[1]; 100 nmol/L", "result": 8.3, "unit": "%"},
      {"measurement": "IL-8 (ng/million cells) Mean", "setting": "[1]; 1,000 nmol/L", "result": 2.4, "unit": "ng/million cells"},
      {"measurement": "IL-8 (pg/million cells) Experiment 1", "setting": "[1]; 1,000 nmol/L", "result": 3390, "unit": "pg/million cells"},
      {"measurement": "IL-8 (pg/million cells) Experiment 2", "setting": "[1]; 1,000 nmol/L", "result": 2273, "unit": "pg/million cells"},
      {"measurement": "IL-8 (pg/million cells) Experiment 3", "setting": "[1]; 1,000 nmol/L", "result": 1494, "unit": "pg/million cells"},
      {"measurement": "Protein level of IL-8, Percent (%) of control Experiment 1", "setting": "[1]; 1,000 nmol/L", "result": 3.2, "unit": "%"},
      {"measurement": "Protein level of IL-8, Percent (%) of control Experiment 2", "setting": "[1]; 1,000 nmol/L", "result": 1.3, "unit": "%"},
      {"measurement": "Protein level of IL-8, Percent (%) of control Experiment 3", "setting": "[1]; 1,000 nmol/L", "result": 4.0, "unit": "%"},
      {"measurement": "IL-8 (ng/million cells) Mean", "setting": "[1]; 10,000 nmol/L", "result": 2.9, "unit": "ng/million cells"},
      {"measurement": "IL-8 (pg/million cells) Experiment 1", "setting": "[1]; 10,000 nmol/L", "result": 5179, "unit": "pg/million cells"},
      {"measurement": "IL-8 (pg/million cells) Experiment 2", "setting": "[1]; 10,000 nmol/L", "result": 1384, "unit": "pg/million cells"},
      {"measurement": "IL-8 (pg/million cells) Experiment 3", "setting": "[1]; 10,000 nmol/L", "result": 2179, "unit": "pg/million cells"},
      {"measurement": "Protein level of IL-8, Percent (%) of control Experiment 1", "setting": "[1]; 10,000 nmol/L", "result": 4.9, "unit": "%"},
      {"measurement": "Protein level of IL-8, Percent (%) of control Experiment 2", "setting": "[1]; 10,000 nmol/L", "result": 0.8, "unit": "%"},
      {"measurement": "Protein level of IL-8, Percent (%) of control Experiment 3", "setting": "[1]; 10,000 nmol/L", "result": 5.9, "unit": "%"},
      {"measurement": "activity at 0.001 µM", "setting": "[1]; Homo sapiens, LOX, 1 nmol/L, read-out: Protein level of IL-8, Mean % of control", "result": 131, "unit": "%"},
      {"measurement": "activity at 0.01 µM", "setting": "[1]; Homo sapiens, LOX, 10 nmol/L, read-out: Protein level of IL-8, Mean % of control", "result": 71, "unit": "%"},
      {"measurement": "activity at 0.1 µM", "setting": "[1]; Homo sapiens, LOX, 100 nmol/L, read-out: Protein level of IL-8, Mean % of control", "result": 4.4, "unit": "%"},
      {"measurement": "activity at 1 µM", "setting": "[1]; Homo sapiens, LOX, 1,000 nmol/L, read-out: Protein level of IL-8, Mean % of control", "result": 2.9, "unit": "%"},
      {"measurement": "activity at 10 µM", "setting": "[1]; Homo sapiens, LOX, 10,000 nmol/L, read-out: Protein level of IL-8, Mean % of control", "result": 3.9, "unit": "%"},
      {"measurement": "IC50", "setting": "[1]; Homo sapiens, LOX melanoma cell line, read-out: mean calculated IC50, IL-8 protein level", "result": 10.5, "unit": "nM"},
      {"measurement": "tumor regression", "setting": "[2]", "result": "30-40%"},
      {"measurement": "IC50", "setting": "SK-MEL-28", "result": "< 100", "unit": "nM"},
      {"measurement": "IC50", "setting": "SK-MEL-3", "result": "< 100", "unit": "nM"},
      {"measurement": "IC50", "setting": "MDA-MB-435", "result": "< 100", "unit": "nM"},
      {"measurement": "IC50", "setting": "Colo-205", "result": "< 100", "unit": "nM"},
      {"measurement": "IC50", "setting": "DU4475", "result": "< 100", "unit": "nM"}
    ]}
  ]
}
